The text below walks through data of patent publication US9993414B2, “Oral care composition comprising an Amadori compound” (Colgate-Palmolive Company, priority 2012, dated 2018).

Assay [1] relates to S. mutans (ATCC #25175). Kind of assay: Inhibition of biofilm formation, crystal violet staining in saliva-coated 96-well plate. The settings on record: for Inhibition against biofilm formation (in words): 1 wt % glucose and 2 wt % Amadori compound, versus no Amadori compound; for Average absorbance (590 nm), amount of biofilm: test sample 1 wt % glucose and 2 wt % Amadori compound, co-incubated overnight at 37° C., lower absorbance = less biofilm. Format: cell-based, Streptococcus mutans. As for the experimental part:
In this Example, the ability of Amadori compound from the reaction of glucose with glycine to inhibit biofilm formation was investigated. A sample of cultured S. mutans (ATCC #25175) bacterium was grown in TSB medium overnight and subsequently centrifuged to form a pellet, and then the centrifuged S. mutans was re-suspended with TSB (trypticase soy broth) containing 1% glucose and adjusted to OD610=0.5 (a concentration with an optical reading of 0.5 at 610 nm for a 1-cm light path). A 50 microliter sample of the re-suspended S. mutans (OD610=0.5) was co-incubated with a 50 microliter test sample. The test sample contained 1 wt % of glucose and 2 wt % of Amadori compound from the reaction of glucose with glycine. The 100 μL total of the re-suspended S. mutans (OD610=0.5) and test sample, representing a clarified saliva, was co-incubated in a 96-well plate which was pre-coated with the clarified saliva and then left overnight at 37° C. After the co-incubation period, the supernatant liquid was aspirated from the well plate. A 50 microliter amount of crystal violet was added to each well and permitted to stain any biofilm for a period of 10 minutes. The well plate was washed with 100 μL of PBS. The amount of biofilm was determined by irradiating the well plate with electromagnetic radiation having a wavelength of 590 nm and measuring the absorbance. The lower the absorbance reading, the less the amount of biofilm detected.

The subject of assay [2] is S. mutans (ATCC #25175). Put plainly: Inhibition of glucose metabolism with Streptococcus mutans (GC-MS of remaining α- and β-glucose). Format: cell-based. The settings on record: for Glucose inhibition (%) from Example 5: versus Comparative Example 1 (no Amadori compound). As for the experimental part: In this Example, the ability of Amadori compound from the reaction of glucose with glycine to inhibit glucose metabolism with Streptococcus mutans was investigated. A stock glucose solution of 0.4 wt % glucose dissolved in distilled water (0.4 g/100 mL) was prepared. A stock Amadori compound from the reaction of glucose with glycine solution of 4.0 wt % Amadori compound from the reaction of glucose with glycine dissolved in distilled water (0.4 g/10 mL) was prepared. A bacterial solution was prepared as follows: S. mutans (ATCC #25175) was cultured overnight in TSB medium and then the resultant bacterial pellet was re-suspended bacterial to OD610=0.8 (a concentration with an optical reading of 0.8 at 610 nm for a 1-cm light path) with phosphate buffered saline (pH=7.4) (PBS). In accordance with Example 5, a test sample comprising 1 mL of the bacterial solution, 0.5 mL of the Amadori compound from the reaction of glucose with glycine solution and 0.5 mL of the glucose solution was subjected to incubation at a temperature of 37° C., representing normal human body temperature. Then, 200 μL of the test sample was transferred into individual HPLC vials after 10 minutes of the incubation period, after 30 minutes of the incubation period, and after 60 minutes of the incubation period. The HPLC vial cap was used to seal the vial. Immediately the HPLC vials were placed in a 100° C. water bath for about 5 minutes to denaturize the enzymes. The resultant products were subjected to gas chromatography-mass spectrometry (GC-MS) testing and analysis to determine the amounts of the α- and β-glucose forms present. In Table 1, the number of counts during MS detection for each respective α- and β-glucose form detected in the respective sample at the respective incubation time is indicated, the number of counts representing the amount of the respective glucose form present. In Comparative Example 1, the testing of Example 5 was repeated but on a control sample comprising 1 mL of the bacterial solution, 0.5 mL of the glucose solution and 0.5 mL of deionized water. In other words, Comparative Example 1 had no Amadori compound from the reaction of glucose with glycine. The control sample was also subjected to incubation at a temperature of 37° C. for the same respective time periods.

Where [3] appears, read: 10 minutes incubation at 37° C., same sample.
Where [4] appears, read: 30 minutes incubation at 37° C., same sample.
Where [5] appears, read: 60 minutes incubation at 37° C., same sample.

Turning to `O=C(O)CC[C@H](NCC(=O)[C@@H](O)[C@H](O)[C@H](O)CO)C(=O)O` [Example 4, N-(1-deoxy-fructos-1-yl)glutamic acid], the “Inhibition against biofilm formation (in words)” value with S. mutans (ATCC #25175) [1] (listed as Amadori compound from the reaction of glucose with glutamic acid) is reported as “very strong inhibition”. In addition, in the assay on S. mutans (ATCC #25175) [1], the “Average absorbance (590 nm), amount of biofilm” value (“Average absorbance (590 nm)” below) is 0.5476.
On to `N=C(N)NCCC[C@H](NCC(=O)[C@@H](O)[C@H](O)[C@H](O)CO)C(=O)O` [Example 2, N-(1-deoxy-fructos-1-yl) arginine], for which the “Inhibition against biofilm formation (in words)” value in the assay on S. mutans (ATCC #25175) [1] (listed as Amadori compound from the reaction of glucose with arginine) was “relatively weak inhibition”. In the assay on S. mutans (ATCC #25175) [1], the “Average absorbance (590 nm)” value was determined as 1.2808.
Regarding `O=C(O)CNCC(=O)[C@@H](O)[C@H](O)[C@H](O)CO` [Example 1, N-(1-deoxy-fructos-1-yl)glycine], in the assay with S. mutans (ATCC #25175) [1] (listed as Amadori compound from the reaction of glucose with glycine), the “Inhibition against biofilm formation (in words)” value was “very strong inhibition”. Besides, the “Average absorbance (590 nm)” value in the assay on S. mutans (ATCC #25175) [1] stood at 0.2885. The “α-glucose, number of counts during MS detection” value in the assay with S. mutans (ATCC #25175) [2] (10 minutes incubation at 37° C., 1 mL bacterial solution + 0.5 mL 4.0 wt % compound solution + 0.5 mL 0.4 wt % glucose solution) was 1753564 counts; in the assay with S. mutans (ATCC #25175) [2] (setting [4]), 1912144 counts; in the assay with S. mutans (ATCC #25175) [2] (setting [5]), 1724203 counts. The “Total glucose (α + β), number of counts during MS detection” value is 5564912 counts with S. mutans (ATCC #25175) [2] (setting [3]), 6220880 counts with S. mutans (ATCC #25175) [2] (setting [4]) and 5403991 counts in the assay with S. mutans (ATCC #25175) [2] (setting [5]). Further, the “β-glucose, number of counts during MS detection” value was 3811348 counts in the assay on S. mutans (ATCC #25175) [2] (setting [3]), 4308736 counts in the assay on S. mutans (ATCC #25175) [2] (setting [4]) and 3679788 counts with S. mutans (ATCC #25175) [2] (setting [5]). The “Glucose inhibition (%) from Example 5” value in the assay on S. mutans (ATCC #25175) [2] (10 minutes incubation) is on record as 56.4%; in the assay with S. mutans (ATCC #25175) [2] (30 minutes incubation), 59.9%; in the assay on S. mutans (ATCC #25175) [2] (60 minutes incubation), 70.1%. Further, in the assay with S. mutans (ATCC #25175) [2] (co-incubated with S. mutans and glucose, versus no Amadori compound), the “Inhibition of glucose metabolization / degradation (in words)” value is recorded as “inhibited glucose metabolization”. In addition, in the assay with S. mutans (ATCC #25175) [2] (within the incubation time period of from 10 to 60 minutes), the “Inhibition of glucose metabolism” value was “at least 56%”.
